{"source": "patent US4997835A", "about": "“Substituted 2-acylpyridine-α-(N)-hetarlyhydrazones and medicaments containing the same” (priority 1987, dated 1991)", "key": {"[1]": {"system": "Mycobacterium smegmatis ATCC 607", "assay": "Minimum inhibiting concentration, M. smegmatis ATCC 607", "type": "cell-based", "conditions": "Mycolicibacterium smegmatis"}, "[2]": {"system": "Mycobacterium tuberculosis H 37 RV", "assay": "Minimum inhibiting concentration, M. tuberculosis H37RV", "type": "cell-based", "conditions": "Mycobacterium tuberculosis; M. tub. H37RV", "experimental": "The minimum inhibiting concentration of the commercially available and inventive substances given in Table 2 was determined according to the known standard process (\"Methods for sensitivity testing of bacterial infectious germs\", DIN 58940, part 5).\nThe determination was carried out on the following bacterial cultures:\n2. Mycobacterium tuberculosis H 37 RV, FIB 2-85 JS\nFor culturing the bacterial cultures use was made of nutrient substrates according to Gottsacker and Lowenstein Jensen and culture media according to Lockemann or Dubos-Davis (cf. \"Detection processes for mycobacteria from test material, III, culture medium formulations for culturing tuberculosis bacteria\", 1978, Publisher: Deutsches Zentralkomitee zur Bekampfung der Tuberculose, Poppenhusenstrasse 14c, 2000 Hamburg 60).\nIn each case 5×10^-3 to 5×10^-5 mg, based on the wet weight, of the mycobacterial strains were incubated in 2 ml of culture fluid (Lockemann +0.5 wt/vol. % bovine serum albumen fraction 5) at 31° C. with a graded concentration of the particular inhibitor (dilution series). The culture tubes were read off after 8 to 15 days, as a function of the bacterial strain.\nThe MIC is the inhibitor concentration in μMol/l at which no propagation of the sewn cells is observed."}, "Mycobacterium lufu": {"system": "Mycobacterium lufu", "assay": "Minimum inhibiting concentration, M. lufu L 209", "type": "cell-based", "conditions": "Mycobacterium lufu"}, "[3]": {"system": "human mammary tumour cell line MDA-MB231", "assay": "Inhibition of thymidine incorporation into DNA", "type": "cell-based", "conditions": "MDA-MB-231, read-out: 50% Inhibition of thymidine incorporation", "experimental": "(§1) The semimaximum inhibition of cellnumber increase and thymidine incorporation into DNA was determined on the […], human mammary tumour cell line MDA-MB231 (cf. H. D. Soule et al, J. Nat. Cancer Inst., 51, p.1409, 1973) according to the method described by H. Seidenberger, G. Kranzfelder, S. Wappes, H. Schonenberger, W. Beck and M. Girth, Arch. Pharm. 314, 955, 1981 and M. Lippman, M. E. Monaco and G. Bolan, Cancer Res. 37, 1901, 1977."}, "[4]": {"system": "Mycobacterium marinum SN 1254", "assay": "Minimum inhibiting concentration, M. marinum SN1254", "type": "cell-based"}, "[5]": {"system": "human mammary tumour cell line MDA-MB231", "assay": "Inhibition of cellnumber increase", "type": "cell-based", "conditions": "MDA-MB-231, read-out: 50% Inhibition of cellnumber increase, I50", "experimental": "as §1"}, "[6]": {"conditions": "K. C. Agrawal et al, Biochem. Pharmacol. 1974; cited from earlier work"}, "[7]": {"system": "Mycobacterium avium Patient Strain (Birk)", "assay": "Minimum inhibiting concentration, M. avium Patient Strain (Birk)", "type": "cell-based", "conditions": "Mycobacterium avium, read-out: Minimum inhibiting concentration"}, "[8]": {"system": "Mycobacterium avium SN 304", "assay": "Minimum inhibiting concentration, M. avium SN 304", "type": "cell-based", "conditions": "SN304, read-out: Minimum inhibiting concentration"}, "in vivo": {"assay": "in vivo", "conditions": "sc, Rat, subc., read-out: LD50", "experimental": "(§2) The acute toxicity after a single administration of PH 22, pyridine-2-aldehyde-thiosemicarbazone (Py-2-TSC), as well as Conteben (thiacetazone, 4-acetylaminobenzaldehyde-thiosemicarbazone) was determined according to H. J. Hapke, Toxikologie fur Veterinarmediziner, F. Enke Verlag, Stuttgart 1975. The test animals used were Wistar rats and NMRI white mice."}, "[9]": {"conditions": "Mouse i.p.; Cancer Res. 25, 1454 (1965); cited from earlier work"}, "[10]": {"system": "Indochina W-2 (parasitic malaria strain)", "assay": "Growth of malaria strain Indochina W-2", "type": "cell-based", "conditions": "for IC50: read-out: I50; for IC90: read-out: I90", "source_text": "(§3) Determination of the semimaximum inhibiting concentration (I50) of typical representatives of the inventive compounds for the growth of parasitic malaria strains:\n(§4) The determination took place according to the standard process (cf. WHO determination process).\n(§5) The process according to Example 35 was repeated with the difference that the semimaximum inhibiting concentration of combinations of the inventive compound PH 22 with (2), (3) inhibitors of dihydrofolic acid reductase, (4) inhibitors of folate synthase and dihydrofolic acid reductase and (5), (6) inhibitors of DNA-synthesis were determined."}, "lymphatic leukaemia P388": {"system": "lymphatic leukaemia P388", "conditions": "C. Pellerano et al, Il Farmaco 1985; cited from earlier work"}, "[11]": {"system": "Sierra Leone D-6 (parasitic malaria strain)", "assay": "Growth of malaria strain Sierra Leone D-6", "type": "cell-based", "conditions": "for IC50: read-out: I50; for IC90: read-out: I90", "source_text": "as §3, §4, §5"}, "M. leprae [12]": {"system": "M. leprae", "assay": "Propagation of M. leprae in mouse paws", "type": "in vivo", "experimental": "The therapeutic action was determined as a reduction of the number of acid-resistant bacteria in the mouse paw according to C. C. Shepard, J. Experim. Met., 112, p. 445, 1960.\nIt is possible to detect the synergistic effect of the combinations, even under in vivo conditions."}, "M. leprae [13]": {"system": "M. leprae", "assay": "In vitro propagation of M. leprae, thymidine incorporation", "type": "cell-based", "conditions": "Mycobacterium leprae, read-out: % Reduction Thymidine incorporation", "description": "The inhibiting action was determined as a reaction of the thymidine absorption and the ATP content in M. Leprae suspensions, in the manner described by A. M. Dhople, Med. Sci. Res., 15, p."}, "[14]": {"conditions": "mouse, in vivo", "experimental": "as §2"}, "[15]": {"conditions": "ATCC607, M. smegm. ATCC 607, read-out: Minimum inhibiting concentration"}, "[16]": {"conditions": "M. marin. SN1254, read-out: Minimum inhibiting concentration"}}, "note": "Like-named read-outs stand apart in the source and are kept apart here.", "data": [{"smiles": "Cc1ccnc(C=NNc2ccccn2)c1", "note": "[PH 22-7, 4-methyl-pyridine-2-aldehyde-2'-pyridylhydrazone]", "values": [{"measurement": "MIC", "setting": "[1]; ATCC607, read-out: Minimum inhibiting concentration", "result": 113, "unit": "µM"}, {"measurement": "MIC", "setting": "[2]", "result": 113, "unit": "µM"}, {"measurement": "MIC", "setting": "Mycobacterium lufu", "result": 57, "unit": "µM"}, {"measurement": "IC50", "setting": "[3]", "result": 159, "unit": "nM"}, {"measurement": "MIC", "setting": "[4]; SN1254, read-out: Minimum inhibiting concentration", "result": 113, "unit": "µM"}, {"measurement": "IC50", "setting": "[5]", "result": 278, "unit": "nM"}]}, {"smiles": "NC(=S)NN=Cc1ccc(O)cn1", "note": "[5-hydroxypyridine-2-(carbox)-aldehyde-thiosemicarbazone]", "values": [{"measurement": "gastrointestinal toxicity", "setting": "[6]", "result": "serious gastrointestinal toxicity"}]}, {"smiles": "c1ccc(C(=NNc2ccc3ccccc3n2)c2ccccn2)cc1", "note": "[PH 22-15, 2-benzoylpyridine-2'-quinolylhydrazone]", "values": [{"measurement": "MIC", "setting": "[1]; [15]", "result": 3.1, "unit": "µM"}, {"measurement": "MIC", "setting": "[7]; M. avium Patient str.", "result": 18.5, "unit": "µM"}, {"measurement": "MIC", "setting": "[2]", "result": 0.97, "unit": "µM"}, {"measurement": "MIC", "setting": "Mycobacterium lufu", "result": 1.2, "unit": "µM"}, {"measurement": "IC50", "setting": "[3]", "result": 570, "unit": "nM"}, {"measurement": "MIC", "setting": "[4]; [16]", "result": 4.6, "unit": "µM"}, {"measurement": "IC50", "setting": "[5]", "result": 1530, "unit": "nM"}]}, {"smiles": "NC[C@H]1O[C@H](O[C@H]2[C@H](O)[C@@H](O[C@H]3O[C@H](CO)[C@@H](O)[C@H](N)[C@H]3O)[C@H](N)C[C@@H]2N)[C@H](O)[C@@H](O)[C@@H]1O", "note": "[Kanamycin, reference compound]", "values": [{"measurement": "MIC", "setting": "[7]", "result": 17, "unit": "µM"}, {"measurement": "MIC", "setting": "[8]", "result": 33, "unit": "µM"}]}, {"smiles": "NC(=S)NN=Cc1ccccn1", "note": "[Py-2-TSC, pyridine-2-aldehyde-thiosemicarbazone, reference compound]", "values": [{"measurement": "MIC", "setting": "Mycobacterium lufu", "result": 40, "unit": "µM"}, {"measurement": "LD50", "setting": "in vivo", "result": 30, "unit": "mg/kg"}, {"measurement": "LD50", "setting": "[9]", "result": 40, "unit": "mg/kg body weight"}]}, {"smiles": "c1ccc(C(=NNc2ccccn2)c2ccccn2)cc1", "note": "[PH 22-9, 2-benzoyl pyridine-2'-pyridylhydrazone]", "values": [{"measurement": "IC50", "setting": "[10]", "result": 1500, "unit": "nM"}, {"measurement": "IC90", "setting": "[10]", "result": 5300, "unit": "nM"}, {"measurement": "MIC", "setting": "[1]; [15]", "result": 36.5, "unit": "µM"}, {"measurement": "MIC", "setting": "[7]; M. avium Patient str.", "result": 73, "unit": "µM"}, {"measurement": "MIC", "setting": "[2]", "result": 13, "unit": "µM"}, {"measurement": "MIC", "setting": "Mycobacterium lufu", "result": 5.5, "unit": "µM"}, {"measurement": "IC50", "setting": "[3]", "result": 89, "unit": "nM"}, {"measurement": "MIC", "setting": "[4]; [16]", "result": 18.3, "unit": "µM"}, {"measurement": "IC50", "setting": "[5]", "result": 97, "unit": "nM"}, {"measurement": "in vivo treatment of lymphatic leukaemia P388", "setting": "lymphatic leukaemia P388", "result": "ineffective"}, {"measurement": "IC50", "setting": "[11]", "result": 1800, "unit": "nM"}, {"measurement": "IC90", "setting": "[11]", "result": 2200, "unit": "nM"}]}, {"smiles": "Clc1cc(NN=Cc2ccccn2)ncn1", "note": "[PH 22-26, pyridine-2-aldehyde-6'-chloro-4'-pyrimidylhydrazone]", "values": [{"measurement": "% Inhibition of propagation of M. leprae in mouse paws", "setting": "M. leprae [12]; 0.1% in feed, 4 months", "result": 40, "unit": "%"}, {"measurement": "M. leprae/paw, treated mice", "setting": "M. leprae [12]; 0.1% in feed, 4 months (control 0.468)", "result": "0.283 × 10^6"}, {"measurement": "% Inhibition of propagation of M. leprae in mouse paws", "setting": "M. leprae [12]; 0.1% in feed, 6.5 months", "result": 69, "unit": "%"}, {"measurement": "% Inhibition of propagation of M. leprae in mouse paws", "setting": "M. leprae [12]; 0.1% in feed, 8.5 months", "result": 77, "unit": "%"}, {"measurement": "M. leprae/paw, treated mice", "setting": "M. leprae [12]; 0.1% in feed, 8.5 months (control 2.978)", "result": "0.684 × 10^6"}, {"measurement": "% Inhibition of propagation of M. leprae in mouse paws", "setting": "M. leprae [12]; 0.1% in feed, 12 months", "result": 74, "unit": "%"}, {"measurement": "M. leprae/paw, treated mice", "setting": "M. leprae [12]; 0.1% in feed, 12 months (control 3.682)", "result": "0.945 × 10^6"}, {"measurement": "% Inhibition of propagation of M. leprae in mouse paws", "setting": "M. leprae [12]; two months in feed, DDS 0.0001%, Rifampicin 0.001%, K-130 0.01%, Brodimoprim 0.01%, PH 22-26 0.05%", "result": 0, "unit": "%"}, {"measurement": "IC50", "setting": "[10]", "result": 3500, "unit": "nM"}, {"measurement": "IC90", "setting": "[10]", "result": 6200, "unit": "nM"}, {"measurement": "MIC", "setting": "[1]; [15]", "result": 25.7, "unit": "µM"}, {"measurement": "MIC", "setting": "[2]", "result": 6.2, "unit": "µM"}, {"measurement": "MIC", "setting": "Mycobacterium lufu", "result": 1.3, "unit": "µM"}, {"measurement": "inhibition of growth at 50000 µg/mL", "setting": "M. leprae [13]; 50 mg/ml", "result": 30, "unit": "%"}, {"measurement": "inhibition of growth at 100000 µg/mL", "setting": "M. leprae [13]; 100 mg/ml", "result": 48, "unit": "%"}, {"measurement": "toxic effects", "setting": "[14]", "result": "No toxic effects were observed"}, {"measurement": "MIC", "setting": "[4]; [16]", "result": 12.9, "unit": "µM"}, {"measurement": "IC50", "setting": "[11]", "result": 2000, "unit": "nM"}, {"measurement": "IC90", "setting": "[11]", "result": 3000, "unit": "nM"}]}, {"smiles": "CC(=NNc1ccccn1)c1ccccn1", "note": "[PH 22-2, 2-acetylpyridine-2'-pyridylhydrazone]", "values": [{"measurement": "MIC", "setting": "[1]; [15]", "result": 24, "unit": "µM"}, {"measurement": "MIC", "setting": "[7]; M. avium Patient str.", "result": 132, "unit": "µM"}, {"measurement": "MIC", "setting": "[2]", "result": 48, "unit": "µM"}, {"measurement": "MIC", "setting": "Mycobacterium lufu", "result": 33, "unit": "µM"}, {"measurement": "MIC", "setting": "[4]; [16]", "result": 28, "unit": "µM"}, {"measurement": "in vivo treatment of lymphatic leukaemia P388", "setting": "lymphatic leukaemia P388", "result": "ineffective"}]}]}
